{
  "source": "patent US12698467B2",
  "about": "“Tissue engineered scaffolds, instrumented bioreactors and methods of use thereof” (President and Fellows of Harvard College, priority 2018, dated 2026)",
  "key": {"[1]": {"tested_on": "neonatal rat ventricular myocyte (NRVM) tissue-engineered ventricles", "test": "β-adrenergic response of tissue-engineered NRVM ventricles by pressure-volume catheterization", "type": "cell-based", "protocol": "(§1) Intra-ventricular pressure and volume were measured simultaneously using a Millar MPVS-Ultra single segment foundation system for rats with SPR-869NR rat pressure-volume (PV) catheters (ADInstruments, Colorado Springs, CO). Catheter calibration and PV experiments were performed in freshly prepared Tyrode's solution. First, tissue-engineered ventricles were transferred to a 3.5 cm petri dish mounted on a temperature-controlled stage (Warner Instruments, Hamden Conn.) to maintain 35° C. working temperature. Ventricles were sutured to silicone tubing through which catheters were inserted (FIG. 12A). Data acquired at a sampling rate of 2,000 samples per second using manufacturer-supplied acquisition systems (Millar MPVS ultra, ADInstruments LabChart) and was exported for post-processing with custom Matlab scripts (MathWorks, Natick MA).\n(§2) Catheter calibration. Catheters were equilibrated at 35° C. prior to use and calibrated for pressure using a manometer (Meriam M2; Meriam Process Technologies, Cleveland, OH) and volume using manufacturer-supplied cuvettes (Millar P/N 910-1048). […] Separate scaffold-specific calibrations were performed, where cell-free scaffolds were inflated and deflated by manual application of pressure through a solution-filled syringe connected to the ventricle through a junction port. […] In some cases, pressure or volume signal noise and drift were reduced by post-processing using Matlab's smooth and polyfit functions (FIG. 12C). Pressure and volume signals were normalized by polynomial background subtraction to reduce unwanted signal drift from large data sets, clarifying frequency-domain analysis of ventricle beat rates over these time periods (FIGS. 13A-13D).\n(§3) β-adrenergic response of tissue-engineered ventricles. The contractile response of tissue-engineered ventricles to increasing concentrations of the β-adrenergic agonist isoproterenol was measured as follows. A 100 mM stock solution of isoproterenol (Sigma-Aldrich) containing 110 μM ascorbic acid (Sigma-Aldrich) and 45 μM EDTA (Sigma-Aldrich) was prepared in Tyrode's solution and stored at −20° C. […]"}, "[2]": {"tested_on": "human induced pluripotent stem cell-derived cardiomyocyte (hiPSC-CM) tissue-engineered ventricles", "test": "β-adrenergic response of tissue-engineered hiPSC-CM ventricles by pressure-volume catheterization", "type": "cell-based", "protocol": "as §1, §2, §3"}},
  "note": "Entries after “also recorded” stand apart in the source; their conditions may differ.",
  "data": [
    {"molecule": "CC(C)NCC(O)c1ccc(O)c(O)c1", "note": "(stereo not drawn) [isoproterenol]", "values": [
      {"measurement": "chronotropic response of ventricle beat rate", "setting": "[1]; NRVM ventricles, 1 e^−10 M to 1 e^−4 M, cumulative doses", "result": "positive chronotropic response"},
      {"measurement": "increase of ventricle beat rate", "setting": "[1]; NRVM ventricles, 10^−4 M isoproterenol, compared to spontaneous baseline (no Iso)", "result": "~ 40%"},
      {"measurement": "effect on stroke work (pressure/volume loops)", "setting": "[1]; rat (NRVM) ventricles, before vs after isoproterenol exposure", "result": "reduction in stroke work; also recorded: reduced stroke work"},
      {"measurement": "chronotropic response of ventricle beat rate", "setting": "[2]; hiPSC-CM ventricles, 1 e^−10 M to 1 e^−4 M, cumulative doses", "result": "positive chronotropic response"},
      {"measurement": "increase of ventricle beat rate", "setting": "[2]; hiPSC-CM ventricles, 10^−4 M isoproterenol, compared to spontaneous baseline (no Iso)", "result": "~ 40%"},
      {"measurement": "effect on stroke work (pressure/volume loops)", "setting": "[2]; human (hiPSC-CM) ventricles, before vs after isoproterenol exposure", "result": "reduction in stroke work; also recorded: reduced stroke work"}
    ]}
  ]
}
